Experiments:
[1] = tested on: HLA-B*44; assay: MHC binding assay (UV-ligand exchange, β2m ELISA); parameters: species or system human; settings: UV-ligand exchange, β2m ELISA
[2] = tested on: CD8+ T cells; assay: In vitro T-cell priming assay with aAPCs (in vitro immunogenicity for MHC class I presented peptides); assay type: cell-based, human; settings: in vitro immunogenicity, HLA B*07
[3] = target: HLA-B*07 (Homo sapiens, UniProt P01889); assay: MHC binding assay (UV-ligand exchange, β2m ELISA)
From the text: Candidate peptides for T cell based therapies according to the present invention were further tested for their MHC binding capacity (affinity). The individual peptide-MHC complexes were produced by UV-ligand exchange, where a UV-sensitive peptide is cleaved upon UV-irradiation, and exchanged with the peptide of interest as analyzed. Only peptide candidates that can effectively bind and stabilize the peptide-receptive MHC molecules prevent dissociation of the MHC complexes. To determine the yield of the exchange reaction, an ELISA was performed based on the detection of the light chain (β2m) of stabilized MHC complexes. The assay was performed as generally described in Rodenko et al. (Rodenko et al., 2006).
96 well MAXISorp plates (NUNC) were coated over night with 2 ug/ml streptavidin in PBS at room temperature, washed 4× and blocked for 1 h at 37° C. in 2% BSA containing blocking buffer. […] Peptide-MHC monomers of the UV-exchange reaction were diluted 100-fold in blocking buffer. Samples were incubated for 1 h at 37° C., washed four times, incubated with 2 ug/ml HRP conjugated anti-β2m for 1h at 37° C., washed again and detected with TMB solution that is stopped with […]. Absorption was measured at 450 nm. Candidate peptides that show a high exchange yield (preferably higher than 50%, most preferred higher than 75%) are generally preferred for a generation and production of antibodies or fragments thereof, and/or T cell receptors or fragments thereof, as they show sufficient avidity to the MHC molecules and prevent dissociation of the MHC complexes.

Substance	Peptide exchange (peptide exchange yield, MHC class I binding score) [1]	Wells positive [%] [2]	Peptide exchange (peptide exchange yield, MHC class I binding score) [3]
489 (SEIGKAVGF; listed as Homo sapiens) [compound 489]	“++++” (>75% = ++++)	–	–
345 (IEFIHPQAF; listed as Homo sapiens) [compound 345]	“++++” (>75% = ++++)	–	–
478 (SEIEQEIGSL; listed as Homo sapiens) [compound 478]	“+++” (>50 =+++)	–	–
353 (GEIIMQNNW; listed as Homo sapiens) [compound 353]	“++++” (>75% = ++++)	–	–
357 (RELENCFQIQ; listed as Homo sapiens) [compound 357]	“+++” (>50 =+++)	–	–
341 (EEIEGKGSFTYF; listed as Homo sapiens) [compound 341]	“+++” (>50 =+++)	–	–
367 (GEVHPSEMI; listed as Homo sapiens) [compound 367]	“+++” (>50 =+++)	–	–
369 (EEIERFFKL; listed as Homo sapiens) [compound 369]	“+++” (>50 =+++)	–	–
349 (AEQDMRELTY; listed as Homo sapiens) [compound 349]	“+++” (>50 =+++)	–	–
364 (AETPIQNVI; listed as Homo sapiens) [compound 364]	“+++” (>50 =+++)	–	–
370 (YEDLSQKY; listed as Homo sapiens) [compound 370]	“+” (>10% = +)	–	–
485 (SEIEDSTKQVF; listed as Homo sapiens) [compound 485]	“+++” (>50 =+++)	–	–
368 (GEFPVRVQV; listed as Homo sapiens) [compound 368]	“++” (>20% = ++)	–	–
482 (TEREWADEW; listed as Homo sapiens) [compound 482]	“+++” (>50 =+++)	–	–
484 (AEVGFVRFF; listed as Homo sapiens) [compound 484]	“++++” (>75% = ++++)	–	–
356 (EEGRVYLF; listed as Homo sapiens) [compound 356]	“+++” (>50 =+++)	–	–
352 (NEVLTYIKF; listed as Homo sapiens) [compound 352]	“++++” (>75% = ++++)	–	–
285 (FPSFLTNSL; listed as Homo sapiens) [compound 285]	–	“++++” (>=70% = ++++)	“++++” (>75% = ++++)
360 (AEVPTGVII; listed as Homo sapiens) [compound 360]	“++++” (>75% = ++++)	–	–

Substance	Peptide exchange (peptide exchange yield, MHC class I binding score) [1]	Wells positive [%] [2]	Peptide exchange (peptide exchange yield, MHC class I binding score) [3]
358 (KEADIHFLI; listed as Homo sapiens) [compound 358]	“++++” (>75% = ++++)	–	–
294 (GPTPNTGAAL; listed as Homo sapiens) [compound 294]	–	“+++” (50%-69% = +++)	“++++” (>75% = ++++)
336 (ASSSGPMRWW; listed as Homo sapiens) [compound 336]	“++” (>20% = ++)	–	–
344 (EEATGQFHVY; listed as Homo sapiens) [compound 344]	“+++” (>50 =+++)	–	–
373 (MEMQKSPVF; listed as Homo sapiens) [compound 373]	“+++” (>50 =+++)	–	–
343 (TEFTTVLY; listed as Homo sapiens) [compound 343]	“++” (>20% = ++)	–	–
348 (AEIQGNINHV; listed as Homo sapiens) [compound 348]	“+++” (>50 =+++)	–	–
483 (EENDQSTHKW; listed as Homo sapiens) [compound 483]	“+++” (>50 =+++)	–	–
355 (SDMVRFHLF; listed as Homo sapiens) [compound 355]	“++” (>20% = ++)	–	–
332 (MEVPVIKI; listed as Homo sapiens) [compound 332]	“++” (>20% = ++)	–	–
366 (AENLFRAF; listed as Homo sapiens) [compound 366]	“++” (>20% = ++)	–	–
324 (TDSIHAWTF; listed as Homo sapiens) [compound 324]	“+++” (>50 =+++)	–	–
363 (AELDKLTSV; listed as Homo sapiens) [compound 363]	“+++” (>50 =+++)	–	–
292 (SPQRLRGLLL; listed as Homo sapiens) [compound 292]	–	“+++” (50%-69% = +++)	“+++” (>50 = +++)
225 (LPFDGPGGIL; listed as Homo sapiens) [compound 225]	–	“++++” (>=70% = ++++)	“++++” (>75% = ++++)
250 (SPRDFLSGL; listed as Homo sapiens) [compound 250]	–	“+” (<20% = +)	“++++” (>75% = ++++)
222 (NPFYPEVEL; listed as Homo sapiens) [compound 222]	–	“+” (<20% = +)	“+++” (>50 = +++)
228 (YPRGNHWAVGHL; listed as Homo sapiens) [compound 228]	–	“++” (20%-49% = ++)	“++++” (>75% = ++++)
372 (TEGIIMKDF; listed as Homo sapiens) [compound 372]	“++” (>20% = ++)	–	–

Substance	Peptide exchange (peptide exchange yield, MHC class I binding score) [1]	Wells positive [%] [2]	Peptide exchange (peptide exchange yield, MHC class I binding score) [3]
481 (RELQHEHSL; listed as Homo sapiens) [compound 481]	“+++” (>50 =+++)	–	–
374 (DEVNFLVY; listed as Homo sapiens) [compound 374]	“+” (>10% = +)	–	–
350 (GECDVFKEIL; listed as Homo sapiens) [compound 350]	“+++” (>50 =+++)	–	–
371 (GELALKKKI; listed as Homo sapiens) [compound 371]	“++” (>20% = ++)	–	–
488 (TEFPIIKMY; listed as Homo sapiens) [compound 488]	“++” (>20% = ++)	–	–
486 (SEDDPILQI; listed as Homo sapiens) [compound 486]	“+++” (>50 =+++)	–	–
460 (MPMAGDMNGL; listed as Homo sapiens) [compound 460]	–	“++” (20%-49% = ++)	“++++” (>75% = ++++)
351 (EEVNYINTF; listed as Homo sapiens) [compound 351]	“+++” (>50 =+++)	–	–
293 (RPRSALPRLLLP; listed as Homo sapiens) [compound 293]	–	“++” (20%-49% = ++)	“++++” (>75% = ++++)
274 (TPYQEHVAL; listed as Homo sapiens) [compound 274]	–	“+” (<20% = +)	“+++” (>50 = +++)
248 (IPNWARQDL; listed as Homo sapiens) [compound 248]	–	“++++” (>=70% = ++++)	“++++” (>75% = ++++)
474 (LPRLLPAL; listed as Homo sapiens) [compound 474]	–	“+++” (50%-69% = +++)	“++++” (>75% = ++++)
220 (SPSVSQLSVL; listed as Homo sapiens) [compound 220]	–	“++++” (>=70% = ++++)	“++++” (>75% = ++++)
223 (YPKDIYSSF; listed as Homo sapiens) [compound 223]	–	“++” (20%-49% = ++)	“++++” (>75% = ++++)
244 (FPYVRDFVM; listed as Homo sapiens) [compound 244]	–	“+” (<20% = +)	“++++” (>75% = ++++)
233 (KPYQGNPTF; listed as Homo sapiens) [compound 233]	–	“+” (<20% = +)	“++++” (>75% = ++++)
237 (RPAATAVISL; listed as Homo sapiens) [compound 237]	–	“+” (<20% = +)	“+++” (>50 = +++)
226 (SPRMSGLLSQT; listed as Homo sapiens) [compound 226]	–	“+++” (50%-69% = +++)	“++++” (>75% = ++++)

From patent publication US11292821B2, “Peptides and combination of peptides for use in immunotherapy against lung cancer, including NSCLC, SCLC and other cancers” (Immatics Biotechnologies GmbH, priority 2017, dated 2022)
